Assay results as given in ChEMBL document CHEMBL1125430, “Analogues of the dioxolanes dexoxadrol and etoxadrol as potential phencyclidine-like agents. Synthesis and structure-activity relationships” (J Med Chem, 1992).

Species on record: Rattus norvegicus
Experiment: Displacement of [3H]TCP from PCP receptor in tissue preparation of whole rat brain minus cerebellum.
Type: functional, organism-based

Q: How did the Ki turn out when `CC[C@]1(c2ccccc2O)OC[C@H]([C@@H]2CCCCN2)O1` was run?
A: Its Ki is 293 nM.

Q: With `CCCCCCN1CCCC[C@H]1[C@H]1COC(c2ccccc2)(c2ccccc2)O1` as the compound, how does the Ki read?
A: Its Ki is 21200 nM.

Q: `CC[C@]1(c2cccs2)OC[C@H]([C@@H]2CCCCN2)O1` was tested. Which Ki did it give?
A: Its Ki is 205 nM.

Q: `CN1CCCC[C@H]1[C@H]1COC(c2ccccc2)(c2ccccc2)O1` was tested. Which Ki did it give?
A: The Ki was 4400 nM.

Q: With `CCCCCCCCC[C@]1(c2ccccc2)OC[C@H]([C@@H]2CCCCN2)O1` as the compound, how does the Ki read?
A: The Ki was 43000 nM.

Q: `CC[C@]1(c2cccc(Cl)c2)OC[C@H]([C@@H]2CCCCN2)O1` was tested. Which Ki did it give?
A: Its Ki is 59 nM.

Q: Which Ki does the source give for `NC[C@H]1COC(c2ccccc2)(c2ccccc2)O1` here?
A: The Ki was 1400 nM.

Q: Which Ki does the source give for `CCCC[C@]1(c2ccccc2)OC[C@H]([C@@H]2CCCCN2)O1` here?
A: Its Ki is 200 nM.

Q: With `c1ccc(C2(c3ccccc3)OCC(C3CCCCN3)CO2)cc1` (stereo not drawn) as the compound, how does the Ki read?
A: The Ki was greater than 100000 nM.

Q: For `CCC1(CC)OC[C@H]([C@@H]2CCCCN2)O1`, which Ki is on record?
A: The Ki was 87000 nM.

Q: `c1ccc(C2(c3ccccc3)CCC(C3CCCCN3)C2)cc1` (single isomer, unassigned; 40a) was tested. Which Ki did it give?
A: Its Ki is 52000 nM.

Q: With `CCC[C@]1(c2ccccc2)OC[C@H]([C@@H]2CCCCN2)O1` as the compound, how does the Ki read?
A: The Ki was 69 nM.

Q: Which Ki does the source give for `CC(C)[C@]1(c2ccccc2)OC[C@H]([C@@H]2CCCCN2)O1` here?
A: The Ki was 45 nM.

Q: With `CCC[C@H](N)[C@H]1COC(c2ccccc2)(c2ccccc2)O1` as the compound, how does the Ki read?
A: The Ki was 3450 nM.

Q: Which Ki does the source give for `CCCN1CCCC[C@H]1[C@H]1COC(c2ccccc2)(c2ccccc2)O1` here?
A: The Ki was 6800 nM.

Q: With `CCN1CCCC[C@H]1[C@H]1COC(c2ccccc2)(c2ccccc2)O1` as the compound, how does the Ki read?
A: Its Ki is 6900 nM.

Q: Which Ki does the source give for `CN[C@@H](C)[C@H]1COC(c2ccccc2)(c2ccccc2)O1` here?
A: Its Ki is 703 nM.

Q: With `CC[C@]1(c2ccc(O)cc2)OC[C@H]([C@@H]2CCCCN2)O1` as the compound, how does the Ki read?
A: Its Ki is 19900 nM.

Q: How did the Ki turn out when `c1ccc(C2(c3ccccc3)OC[C@H]([C@@H]3CCCN3)O2)cc1` was run?
A: Its Ki is greater than 10000 nM.

Q: For `CC[C@]1(c2ccccc2Cl)OC[C@H]([C@@H]2CCCCN2)O1`, which Ki is on record?
A: Its Ki is 14.3 nM.

Q: For `CNC[C@H]1COC(c2ccccc2)(c2ccccc2)O1`, which Ki is on record?
A: Its Ki is 7300 nM.

Q: With `CCNC[C@H]1COC(c2ccccc2)(c2ccccc2)O1` as the compound, how does the Ki read?
A: Its Ki is 8400 nM.

Q: For `CC[C@]1(c2cccc(O)c2)OC[C@H]([C@@H]2CCCCN2)O1`, which Ki is on record?
A: Its Ki is 489 nM.

Q: How did the Ki turn out when `CC[C@]1(c2cccc(N=C=S)c2)OC[C@H]([C@@H]2CCCCN2)O1` was run?
A: The Ki was 590 nM.

Q: How did the Ki turn out when `c1ccc([C@H]2OC[C@H]([C@@H]3CCCCN3)O2)cc1` was run?
A: The Ki was 25000 nM.

Q: `CC[C@]1(c2ccc(Cl)cc2)OC[C@H]([C@@H]2CCCCN2)O1` was tested. Which Ki did it give?
A: Its Ki is 2800 nM.

Q: `c1ccc2c(c1)-c1ccccc1C21OC[C@H]([C@@H]2CCCCN2)O1` was tested. Which Ki did it give?
A: Its Ki is 15500 nM.

Q: Which Ki does the source give for `c1ccc(C2(N3CCCCC3)CCCCC2)cc1` [PHENCYCLIDINE] here?
A: The Ki was 80 nM.

Q: Which Ki does the source give for `CC[C@]1(c2cccc([N+](=O)[O-])c2)OC[C@H]([C@@H]2CCCCN2)O1` here?
A: The Ki was 1320 nM.

Q: With `c1ccc(C2(c3ccccc3)OC[C@@H]([C@@H]3CCCN3)O2)cc1` as the compound, how does the Ki read?
A: The Ki was 3300 nM.

Q: How did the Ki turn out when `CC[C@]1(c2ccsc2)OC[C@H]([C@@H]2CCCCN2)O1` was run?
A: The Ki was 124 nM.

Q: Which Ki does the source give for `c1ccc(CN2CCCC[C@H]2[C@H]2COC(c3ccccc3)(c3ccccc3)O2)cc1` here?
A: The Ki was 10100 nM.

Q: Which Ki does the source give for `C1=Cc2ccccc2C2(OC[C@H]([C@@H]3CCCCN3)O2)c2ccccc21` here?
A: The Ki was 325 nM.

Q: How did the Ki turn out when `C[C@H](N)[C@H]1COC(c2ccccc2)(c2ccccc2)O1` was run?
A: The Ki was 607 nM.

Q: `CC[C@]1(c2ccc(F)cc2)OC[C@H]([C@@H]2CCCCN2)O1` was tested. Which Ki did it give?
A: Its Ki is 649 nM.

Q: Which Ki does the source give for `CCN[C@@H](C)[C@H]1COC(c2ccccc2)(c2ccccc2)O1` here?
A: The Ki was 9000 nM.

Q: `c1ccc(C2(c3ccccc3)CCC(C3CCCCN3)C2)cc1` (single isomer, unassigned; 40b) was tested. Which Ki did it give?
A: Its Ki is 8300 nM.

Q: For `CC[C@]1(c2cccc(N)c2)OC[C@H]([C@@H]2CCCCN2)O1`, which Ki is on record?
A: The Ki was 1230 nM.

Q: With `C[C@]1(c2ccccc2)OC[C@H]([C@@H]2CCCCN2)O1` as the compound, how does the Ki read?
A: Its Ki is 847 nM.

Q: Which Ki does the source give for `CCC[C@H](NC)[C@H]1COC(c2ccccc2)(c2ccccc2)O1` here?
A: Its Ki is 7000 nM.

Q: `C=CCN1CCCC[C@H]1[C@H]1COC(c2ccccc2)(c2ccccc2)O1` was tested. Which Ki did it give?
A: The Ki was 15200 nM.

Q: For `CC[C@]1(c2ccccc2F)OC[C@H]([C@@H]2CCCCN2)O1`, which Ki is on record?
A: Its Ki is 36 nM.

Q: `CC[C@]1(c2ccccc2)OC[C@H]([C@@H]2CCCCN2)O1` [ETOXADROL] was tested. Which Ki did it give?
A: The Ki was 107 nM.
